Patent publication US8455510B2

Assays:
[1] = MTT cytotoxicity on mouse spleen lymphocytes; type: cell-based, BALB/c mice; settings: BALB/c, MTT assay
Description: 3-(4,5-dimethylthylthiazol-2-yl)-2,5-diphenyl tetrazolium bromide (MTT) assay was adopted to measure the effect of the in vitro administered compound on the activity of the spleen lymphocytes of normal mice, and evaluate the cytotoxicity of the compound.
They were dissolved in DMSO before testing to prepare a stock solution, which was diluted to a desired concentration with the medium when use.
100 μl cell suspension of mouse spleen lymphocytes was inoculated on a 96-well plate (4×10^5 per well), and the compound at different concentrations was added therein, including additional solvent control or medium background control, wherein, the total volume of each well was 200 μl. After the 96-well plate was placed in an incubator at 37° C. with 5% CO2 for 48 hours, 20 μl (5 mg/ml) of MTT solution was added 6 to 7 hours before the end of incubation. Then after the incubation was completed, 100 μl of supernatant was removed for each well, and 100 μl of […] was added therein. After the 96-well plate was placed in the incubator for 6 to 7 hours, OD values were determined on an ELISA Reader at the wavelength of 570 nm.

[2] = tested on: DNFB-induced delayed type hypersensitivity reaction; experiment: DNFB-induced delayed type hypersensitivity reaction in mice; type: in vivo, BALB/c mice; settings: 1.5 mg/kg/d, intraperitoneal injection; model control 0.175 mm
Description: The delayed type hypersensitivity (DTH) reaction in mice was induced by DNFB to evaluate the inhibition effect of the compound on DTH in vivo. […] Preparation method: the compound was dissolved in anhydrous alcohol to prepare a stock solution (50 mg/ml), which was diluted to the desired concentration when use by using a solution of 5% PEG400, 5% Tween-80 in sterile water as a solvent. […] DNFB combined with dermal protein to form a complete antigen after sensitizing on feet of mice. One week later, mice were attacked by DNFB on ears to induce a local delayed allergic reaction, i.e., the delayed type hypersensitivity reaction to cause ear swelling, while the delayed type hypersensitivity reaction would not be observed on the ear which had not been attacked. Therefore, the ear swelling can reflect the level of the delayed type hypersensitivity reaction in mice induced by DNFB. (1) 20 μl of 0.5% DNFB solution in a mixture of acetone and olive oil (4:1) as a solvent was applied on both hind legs of mice for sensitization. […] (4) Thickness of the left and right ears of the mice was measured by a micrometer screw gauge, and the swelling was calculated by subtracting the thickness of the left ear from thickness of the right ear.

T Cells = experiment: Immunosuppressive activity assay: T cells inhibitory activity; type: cell-based; settings: T-cell; Table 10
[3] = tested on: allogeneic antigen-induced mouse spleen lymphocytes; experiment: Mixed lymphocyte culture, 3H-TdR incorporation; type: cell-based, C57BL/6 and BALB/C mice
Description: Preparation of Stimulator Cells: a Cell Suspension of Balb/C Mouse Spleen Lymphocytes was irradiated by cesium 137 at 3000 Rads using a Gamma radiometer (Gammacell 3000) to make the cells lose their proliferation ability. After washed by RPMI-1640 for 2 times, the cell concentration was adjusted to 5×10^6/ml.
Preparation of responder cells: C57BL/6 mouse spleen lymphocytes were used as the responder cells, and the cell concentration was 5×10^6/ml.
Mixed lymphocyte culture: 50 μl cell suspension of C57BL/6 mouse spleen lymphocytes was inoculated on a 96-well plate, and 50 μl cell suspension of BALB/C mouse spleen lymphocytes treated by cesium 137 was added therein, followed by addition of 50 μl compound at different concentrations. The total volume for each well was 200 μl. If the total volume was less than 200 μl, it was supplemented with RMPI-1640 medium. The tests were divided into 3 groups, i.e., BALB/C mouse group, C57BL/6 mouse group and BALB/C and C57BL/6 mice mixed culture group. The test was carried out in triplicate wells for each concentration, and included control wells without the compound, with only the stimulator cells and with only the responder cells. The 96-well plate was incubated in an incubator at 37° C. with 5% CO2 for 3 to 5 days. 8 hours before the end of incubation, 25 μl of ^3H-thymidine (10 μCi/ml) was added in each well. After the incubation was completed, cells were harvested by a cell harvester on a glass fiber film. After addition of a scintillation fluid, the amount of ^3H-TdR incorporated in cell DNA was determined by a Beta cell counter (MicroBeta Trilux, PerkinElmer), and the cell proliferation was represented as a cpm value.

in vivo = type: in vivo; settings: nude, mouse, in vivo

CO[C@H]1C[C@@H]2CC[C@@H](C)[C@@](O)(O2)C(=O)C(=O)N2CCCC[C@H]2C(=O)O[C@H]([C@H](C)C[C@@H]2CC[C@@H](O)[C@H](OC)C2)CC(=O)[C@H](C)/C=C(\C)[C@@H](O)[C@@H](OC)C(=O)[C@H](C)C[C@H](C)/C=C/C=C/C=C/1C [Rapamycin]
CC50 at 48 h [1]: 45.5 µM
average ear swelling degree [2]: 0.076 mm
IC50 (T Cells): 4.2 µM
CPM Mean value ([3]; 0.1342 nM): 4788
CPM Mean value ([3]; 0.3355 nM): 3157
CPM Mean value ([3]; 0.8389 nM): 1955
CPM Mean value ([3]; 2.0972 nM): 1638
CPM Mean value ([3]; 32.768 nM): 956
CPM Mean value ([3]; 81.9 nM): 1012
CPM Mean value ([3]; 204.8 nM): 848
CPM Mean value ([3]; 512 nM): 1068
CPM Mean value ([3]; 1280 nM): 967
CPM Mean value ([3]; 3200 nM): 840
CPM Mean value ([3]; 8000 nM): 780
CPM Mean value ([3]; 20000 nM): 362
inhibition at 0.0001342 µM ([3]; Mus musculus, Lymphocyte, 0.1342 nM): 35%
inhibition at 0.0003355 µM ([3]; Mus musculus, Lymphocyte, 0.3355 nM): 57%
inhibition at 0.0008389 µM ([3]; Mus musculus, Lymphocyte, 0.8389 nM): 73%
inhibition at 0.0020972 µM ([3]; Mus musculus, Lymphocyte, 2.0972 nM): 78%
inhibition at 0.0052429 µM ([3]; Mus musculus, Lymphocyte, 5.2429 nM): 83%
inhibition at 0.013107 µM ([3]; Mus musculus, Lymphocyte, 13.107 nM): 83%
inhibition at 0.032768 µM ([3]; Mus musculus, Lymphocyte, 32.768 nM): 87%
inhibition at 0.0819 µM ([3]; Mus musculus, Lymphocyte, 81.9 nM): 86%
inhibition at 0.2048 µM ([3]; Mus musculus, Lymphocyte, 204.8 nM): 88%
inhibition at 0.512 µM ([3]; Mus musculus, Lymphocyte, 512 nM): 85%
inhibition at 1.28 µM ([3]; Mus musculus, Lymphocyte, 1280 nM): 87%
inhibition at 3.2 µM ([3]; Mus musculus, Lymphocyte, 3200 nM): 89%
inhibition at 8 µM ([3]; Mus musculus, Lymphocyte, 8000 nM): 89%
inhibition at 20 µM ([3]; Mus musculus, Lymphocyte, 20000 nM): 95%
AUC0-t (ng · h/g or ng · h/ml) (in vivo): 1455 ng·h/mL
Sirolimus concentration, Liver, Mean Value (in vivo; 0.5 h): 473 ng/g
Sirolimus concentration, Tumor, Mean Value (in vivo; 0.5 h): 20.6 ng/g
Sirolimus concentration, Blood Plasma, Mean Value (in vivo; 2 h): 121 ng/mL
Sirolimus concentration, Liver, Mean Value (in vivo; 2 h): 193 ng/g
Sirolimus concentration, Tumor, Mean Value (in vivo; 2 h): 50.8 ng/g
Sirolimus concentration, Blood Plasma, Mean Value (in vivo; 5 h): 84.7 ng/mL
Sirolimus concentration, Liver, Mean Value (in vivo; 5 h): 139 ng/g
Sirolimus concentration, Tumor, Mean Value (in vivo; 5 h): 41.7 ng/g
Sirolimus concentration, Liver, Mean Value (in vivo; 12 h): 54.2 ng/g
Sirolimus concentration, Tumor, Mean Value (in vivo; 12 h): 33.2 ng/g
Sirolimus concentration, Blood Plasma, Mean Value (in vivo; 48 h): 4.04 ng/mL
Sirolimus concentration, Liver, Mean Value (in vivo; 48 h): 15.8 ng/g
Sirolimus concentration, Tumor, Mean Value (in vivo; 48 h): 25.9 ng/g
